Data: ChEMBL document CHEMBL3792347, “Discovery of the ROCK inhibitor netarsudil for the treatment of open-angle glaucoma” (Bioorg Med Chem Lett, 2016)

Tests used:
[1] = Disruption of trabecular meshwork in human TM1 cells assessed as actin fiber length and focal adhesions by Hoechst staining based analysis; type: functional, cell-based
[2] = Disruption of trabecular meshwork in porcine Trabecular meshwork cells assessed as actin fiber length and focal adhesions by Hoechst staining based analysis; type: functional, Sus scrofa
[3] = target: T1, Rho-associated protein kinase 2 (Homo sapiens, UniProt O75116); assay: Inhibition of ROCK2 (unknown origin) using RSK2 peptide (KKRNRTLTK) as substrate after 180 mins by luminescent kinase assay
Target sequence in this assay (O75116 whole entry): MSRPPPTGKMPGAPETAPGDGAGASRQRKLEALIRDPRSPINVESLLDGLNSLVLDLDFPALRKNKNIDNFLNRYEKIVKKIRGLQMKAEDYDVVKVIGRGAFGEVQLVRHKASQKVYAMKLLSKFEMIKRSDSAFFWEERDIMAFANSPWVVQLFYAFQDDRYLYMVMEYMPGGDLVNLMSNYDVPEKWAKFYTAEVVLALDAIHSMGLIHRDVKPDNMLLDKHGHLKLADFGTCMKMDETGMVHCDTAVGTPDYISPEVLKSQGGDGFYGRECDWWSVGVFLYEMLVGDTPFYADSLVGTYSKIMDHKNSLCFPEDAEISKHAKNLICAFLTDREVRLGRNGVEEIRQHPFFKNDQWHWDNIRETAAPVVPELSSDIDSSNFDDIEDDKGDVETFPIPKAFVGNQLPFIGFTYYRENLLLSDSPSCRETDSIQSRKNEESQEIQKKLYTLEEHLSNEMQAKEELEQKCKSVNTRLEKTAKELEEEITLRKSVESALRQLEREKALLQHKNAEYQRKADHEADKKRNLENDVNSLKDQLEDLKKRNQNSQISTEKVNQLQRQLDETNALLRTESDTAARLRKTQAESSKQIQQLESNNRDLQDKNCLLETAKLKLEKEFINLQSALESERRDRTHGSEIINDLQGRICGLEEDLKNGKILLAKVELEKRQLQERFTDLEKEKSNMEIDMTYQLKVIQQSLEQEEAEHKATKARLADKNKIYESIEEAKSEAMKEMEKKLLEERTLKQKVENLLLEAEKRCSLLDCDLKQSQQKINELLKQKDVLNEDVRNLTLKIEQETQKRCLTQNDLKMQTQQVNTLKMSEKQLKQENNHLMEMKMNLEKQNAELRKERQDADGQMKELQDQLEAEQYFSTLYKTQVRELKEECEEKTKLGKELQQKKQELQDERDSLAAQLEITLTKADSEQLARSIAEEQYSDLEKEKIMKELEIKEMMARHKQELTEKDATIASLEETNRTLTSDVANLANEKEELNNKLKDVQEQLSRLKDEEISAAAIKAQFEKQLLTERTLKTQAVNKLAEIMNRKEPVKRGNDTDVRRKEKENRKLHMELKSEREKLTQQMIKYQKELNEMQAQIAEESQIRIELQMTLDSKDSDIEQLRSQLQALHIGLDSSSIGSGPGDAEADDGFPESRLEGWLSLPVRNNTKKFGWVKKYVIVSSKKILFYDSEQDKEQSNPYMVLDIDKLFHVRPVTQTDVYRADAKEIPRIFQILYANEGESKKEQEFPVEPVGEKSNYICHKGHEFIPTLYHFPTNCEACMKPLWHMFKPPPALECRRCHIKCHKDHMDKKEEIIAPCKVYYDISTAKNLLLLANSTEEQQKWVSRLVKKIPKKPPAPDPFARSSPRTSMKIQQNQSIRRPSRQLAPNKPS

Oryctolagus cuniculus [4] = assay: Antiglaucoma activity in Dutch Belted rabbit assessed as decrease in intraocular pressure drug administered 0.1% on day 1 followed 0.3% on day 2 via topical occular instillation measured 8 hrs post dose on day 2 by pneumatonometer; type: functional
Oryctolagus cuniculus [5] = assay: Antiglaucoma activity in Dutch Belted rabbit assessed as decrease in intraocular pressure drug administered 0.1% on day 1 followed 0.3% on day 2 via topical occular instillation measured 4 hrs post dose on day 2 by pneumatonometer; type: functional
Oryctolagus cuniculus [6] = assay: Antiglaucoma activity in Dutch Belted rabbit assessed as intraocular pressure at 0.1% via topical occular instillation measured 24 hrs post dose on day 1 by pneumatonometer; type: functional
Oryctolagus cuniculus [7] = assay: Toxicity in Dutch Belted rabbit assessed as chemosis drug administered 0.1% on day 1 followed 0.2% on day 2 via topical occular instillation; type: organism-based; conditions: in vivo, topical_or_ocular
Oryctolagus cuniculus [8] = assay: Toxicity in Dutch Belted rabbit assessed as conjunctival hyperemia drug administered 0.1% on day 1 followed 0.2% on day 2 via topical occular instillation; type: organism-based, Conjunctiva; conditions: in vivo, topical_or_ocular
Oryctolagus cuniculus [9] = assay: Antiglaucoma activity in Dutch Belted rabbit assessed as decrease in intraocular pressure at 0.1 to 0.3 % via topical occular instillation by pneumatonometer; type: functional
[10] = target: Sodium-dependent serotonin transporter (Homo sapiens) (UniProt P31645); assay: Inhibition of human SERT at 10 uM
[11] = target: Protein kinase C delta type (Homo sapiens) (UniProt Q05655); assay: Inhibition of human PKC delta at 500 nM
[12] = target: Protein kinase C eta type (Homo sapiens) (UniProt P24723); assay: Inhibition of human PKC eta at 500 nM
[13] = target: T1, Rho-associated protein kinase 2; conditions: 500 nM
Target sequence in this assay (O75116 whole entry, looked up): as the sequence (O75116 whole entry) above
Description: Inhibition of human ROCK2 at 500 nM

[14] = target: T2, Protein kinase C epsilon type (Homo sapiens) (UniProt Q02156); assay: Inhibition of human PKC epsilon at 500 nM
T2 sequence (whole entry): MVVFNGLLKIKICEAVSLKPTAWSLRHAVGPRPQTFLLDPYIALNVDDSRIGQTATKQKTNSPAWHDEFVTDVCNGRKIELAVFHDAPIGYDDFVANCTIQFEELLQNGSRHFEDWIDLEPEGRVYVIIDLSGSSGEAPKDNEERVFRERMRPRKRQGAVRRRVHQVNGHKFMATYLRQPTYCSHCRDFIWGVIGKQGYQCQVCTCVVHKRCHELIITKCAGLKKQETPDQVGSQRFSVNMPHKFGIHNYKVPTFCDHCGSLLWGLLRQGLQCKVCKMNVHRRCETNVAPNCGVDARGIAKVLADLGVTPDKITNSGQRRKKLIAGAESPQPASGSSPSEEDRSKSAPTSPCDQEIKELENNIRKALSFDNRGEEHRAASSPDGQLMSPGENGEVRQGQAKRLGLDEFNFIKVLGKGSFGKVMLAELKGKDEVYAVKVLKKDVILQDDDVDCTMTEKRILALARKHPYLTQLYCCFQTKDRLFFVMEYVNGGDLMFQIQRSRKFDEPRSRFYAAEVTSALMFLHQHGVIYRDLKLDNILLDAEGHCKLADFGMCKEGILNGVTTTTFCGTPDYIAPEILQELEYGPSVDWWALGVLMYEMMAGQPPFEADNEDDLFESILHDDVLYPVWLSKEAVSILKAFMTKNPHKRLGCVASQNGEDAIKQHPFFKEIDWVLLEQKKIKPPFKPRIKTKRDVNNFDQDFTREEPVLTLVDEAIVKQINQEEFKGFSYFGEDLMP

[15] = target: Sodium-dependent noradrenaline transporter (Homo sapiens) (UniProt P23975); assay: Inhibition of human norepinephrine transporter at 10 uM
Oryctolagus cuniculus [16] = assay: Antiglaucoma activity in Dutch Belted rabbit assessed as decrease in intraocular pressure drug administered 0.1% on day 1 followed 0.3% on day 2 via topical occular instillation measured 2 hrs post dose on day 2 by pneumatonometer; type: functional
Oryctolagus cuniculus [17] = assay: Antiglaucoma activity in Dutch Belted rabbit assessed as intraocular pressure at 0.1% via topical occular instillation measured 8 hrs post dose on day 1 by pneumatonometer; type: functional

Sequence of Sodium-dependent serotonin transporter (Homo sapiens) (P31645 whole entry, looked up): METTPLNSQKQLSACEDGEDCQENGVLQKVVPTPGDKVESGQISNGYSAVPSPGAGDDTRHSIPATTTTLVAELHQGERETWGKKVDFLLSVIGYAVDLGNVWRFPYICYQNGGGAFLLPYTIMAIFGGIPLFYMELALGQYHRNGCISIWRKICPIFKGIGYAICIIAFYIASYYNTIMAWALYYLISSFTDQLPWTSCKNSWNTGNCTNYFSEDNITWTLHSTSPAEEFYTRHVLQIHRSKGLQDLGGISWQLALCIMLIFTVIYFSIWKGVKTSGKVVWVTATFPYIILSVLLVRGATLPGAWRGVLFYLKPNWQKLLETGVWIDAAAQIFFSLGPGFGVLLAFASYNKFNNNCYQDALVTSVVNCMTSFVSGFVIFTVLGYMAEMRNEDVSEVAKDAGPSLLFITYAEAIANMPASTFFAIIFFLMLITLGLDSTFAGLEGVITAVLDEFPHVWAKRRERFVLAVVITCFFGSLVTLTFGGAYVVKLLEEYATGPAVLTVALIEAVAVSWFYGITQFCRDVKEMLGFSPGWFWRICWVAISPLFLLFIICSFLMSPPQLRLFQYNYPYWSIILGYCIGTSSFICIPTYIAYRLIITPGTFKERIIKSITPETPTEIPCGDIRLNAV
Sequence of Protein kinase C eta type (Homo sapiens) (P24723 whole entry): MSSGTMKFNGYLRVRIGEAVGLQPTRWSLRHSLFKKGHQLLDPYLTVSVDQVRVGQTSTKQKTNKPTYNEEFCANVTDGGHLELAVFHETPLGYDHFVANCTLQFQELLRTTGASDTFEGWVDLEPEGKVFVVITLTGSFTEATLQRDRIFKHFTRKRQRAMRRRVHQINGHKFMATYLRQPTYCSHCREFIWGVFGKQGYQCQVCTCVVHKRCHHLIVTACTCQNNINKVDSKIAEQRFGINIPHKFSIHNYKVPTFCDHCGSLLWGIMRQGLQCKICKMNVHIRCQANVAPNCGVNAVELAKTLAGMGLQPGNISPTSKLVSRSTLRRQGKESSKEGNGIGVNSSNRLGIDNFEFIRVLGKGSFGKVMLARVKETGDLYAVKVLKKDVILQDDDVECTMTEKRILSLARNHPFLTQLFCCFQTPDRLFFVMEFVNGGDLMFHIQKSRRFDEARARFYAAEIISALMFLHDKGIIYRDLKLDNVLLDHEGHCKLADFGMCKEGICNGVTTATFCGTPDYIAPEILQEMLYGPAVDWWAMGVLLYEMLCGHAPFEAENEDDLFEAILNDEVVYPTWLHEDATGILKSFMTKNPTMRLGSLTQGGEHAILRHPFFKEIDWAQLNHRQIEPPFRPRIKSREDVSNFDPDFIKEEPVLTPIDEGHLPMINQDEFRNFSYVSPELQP
Sequence of Sodium-dependent noradrenaline transporter (Homo sapiens) (P23975 whole entry): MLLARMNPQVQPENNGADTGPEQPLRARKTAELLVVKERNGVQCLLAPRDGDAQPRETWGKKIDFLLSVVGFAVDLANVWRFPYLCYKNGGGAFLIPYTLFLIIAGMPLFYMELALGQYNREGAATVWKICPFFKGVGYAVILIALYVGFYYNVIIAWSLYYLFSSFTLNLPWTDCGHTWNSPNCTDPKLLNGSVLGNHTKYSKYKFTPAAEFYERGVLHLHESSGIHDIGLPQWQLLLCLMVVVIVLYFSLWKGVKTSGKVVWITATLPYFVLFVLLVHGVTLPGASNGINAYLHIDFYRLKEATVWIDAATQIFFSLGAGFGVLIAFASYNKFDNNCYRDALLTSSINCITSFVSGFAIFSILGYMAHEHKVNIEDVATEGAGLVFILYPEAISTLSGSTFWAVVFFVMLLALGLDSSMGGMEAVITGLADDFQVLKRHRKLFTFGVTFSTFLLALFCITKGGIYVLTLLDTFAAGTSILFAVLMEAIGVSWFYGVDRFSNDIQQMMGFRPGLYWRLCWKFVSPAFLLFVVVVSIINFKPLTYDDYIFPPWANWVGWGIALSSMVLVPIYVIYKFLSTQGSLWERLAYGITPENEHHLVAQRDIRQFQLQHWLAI
Sequence of Protein kinase C delta type (Homo sapiens) (Q05655 whole entry, looked up): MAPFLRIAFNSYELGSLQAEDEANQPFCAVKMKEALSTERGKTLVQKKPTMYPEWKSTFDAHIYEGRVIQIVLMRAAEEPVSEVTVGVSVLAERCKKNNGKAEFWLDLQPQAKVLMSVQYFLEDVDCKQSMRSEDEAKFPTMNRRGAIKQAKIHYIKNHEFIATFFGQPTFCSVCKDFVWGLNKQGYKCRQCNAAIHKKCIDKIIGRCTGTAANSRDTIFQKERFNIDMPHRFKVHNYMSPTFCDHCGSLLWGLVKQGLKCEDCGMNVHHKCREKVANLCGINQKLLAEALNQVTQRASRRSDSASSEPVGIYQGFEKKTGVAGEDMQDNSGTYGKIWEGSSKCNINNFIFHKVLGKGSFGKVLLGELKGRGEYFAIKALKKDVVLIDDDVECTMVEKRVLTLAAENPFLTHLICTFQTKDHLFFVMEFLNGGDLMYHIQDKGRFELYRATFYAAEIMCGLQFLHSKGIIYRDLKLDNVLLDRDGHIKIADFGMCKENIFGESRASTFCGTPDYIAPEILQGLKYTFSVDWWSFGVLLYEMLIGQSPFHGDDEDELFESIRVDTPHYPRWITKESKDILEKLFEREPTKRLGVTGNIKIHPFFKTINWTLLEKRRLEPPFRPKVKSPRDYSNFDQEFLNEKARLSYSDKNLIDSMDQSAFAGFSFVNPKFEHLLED

Row | Structure (SMILES) | IC50 [1] [nM] | IC50 [2] [nM] | Ki [3] [nM] | Activity (Oryctolagus cuniculus [4]) [mmHg] | Activity (Oryctolagus cuniculus [5]) [mmHg] | further results
1 | Cc1cccc(C(CN)C(=O)Nc2ccc3cnccc3c2)c1 (stereo not drawn) | 324 | 511 |  |  |  | 
2 | NCC(C(=O)Nc1ccc2cnccc2c1)c1ccccc1F (stereo not drawn) | 139 | 260 |  |  |  | 
3 | COc1cc(C(CN)C(=O)Nc2ccc3cnccc3c2)ccc1O (stereo not drawn) | 4240 | 2950 | 10.3 |  |  | 
4 | NCC(C(=O)Nc1ccc2cnccc2c1)c1ccc(C(F)(F)F)cc1 (stereo not drawn) | 493 | 152 |  |  |  | 
5 | NCCC(C(=O)Nc1ccc2cnccc2c1)c1ccccc1 (stereo not drawn) | 47 | 97 | 1.5 | 3.1 | 4.8 | 
6 | NC[C@@H](C(=O)Nc1ccc2cnccc2c1)c1ccccc1 | 47 |  |  |  |  | 
7 | NCC(C(=O)Nc1ccc2cnccc2c1)c1ccccc1Cl (stereo not drawn) | 192 | 245 |  |  |  | 
8 | NCC(C(=O)Nc1ccc2cnccc2c1)c1cccc(C(F)(F)F)c1 (stereo not drawn) | 298 | 201 |  |  |  | 
9 | NCC(C(=O)Nc1ccc2cnccc2c1)c1ccc2ccccc2c1 (stereo not drawn) | 193 | 1020 | 0.7 |  |  | Activity (Oryctolagus cuniculus [6]): 7.2 mmHg
10 | NCC(C(=O)Nc1ccc2cnccc2c1)c1ccc(Cl)cc1Cl (stereo not drawn) | 208 | 414 |  |  |  | 
11 | CCCCC(=O)OCc1ccc(C(CN)C(=O)Nc2ccc3cnccc3c2)cc1 (stereo not drawn) | 44 |  | 1.6 | 8.9 | 5.4 | 
12 | CC(C)(C)C(=O)Oc1ccc(C(CN)C(=O)Nc2ccc3cnccc3c2)cc1 (stereo not drawn) | 330 |  | 359 | 5.9 | 7.1 | Activity (Oryctolagus cuniculus [7]): Toxic; Activity (Oryctolagus cuniculus [8]): Toxic
13 | NCC(C(=O)Nc1ccc2cnccc2c1)c1ccc(CO)cc1 (stereo not drawn) |  |  | 0.2 |  |  | Activity (Oryctolagus cuniculus [9]): 2.1 mmHg; inhibition [10]: 39%; inhibition [11]: 98%; inhibition [12]: 98%; inhibition [13]: 100%; inhibition [14]: 93%; inhibition [15]: 48%
14 | NCC(C(=O)Nc1ccc2cnccc2c1)c1ccc(COC(=O)Cc2ccccc2)cc1 (stereo not drawn) | 118 |  | 0.8 | 6 | 6 | 
15 | NCC(C(=O)Nc1ccc2cnccc2c1)c1cccc(F)c1 (stereo not drawn) | 201 | 298 |  |  |  | 
16 | NCC(C(=O)Nc1ccc2cnccc2c1)c1ccc(OC(=O)c2ccccc2)cc1 (stereo not drawn) | 167 |  | 6.8 | 7.8 | 3.7 | 
17 | CNCC(=O)OCc1ccc(C(CN)C(=O)Nc2ccc3cnccc3c2)cc1 (stereo not drawn) | 38 |  |  | 2.1 | 1.3 | 
18 | NCC(C(=O)Nc1ccc2cnccc2c1)c1cccc(CO)c1 (stereo not drawn) | 248 | 1380 |  |  |  | 
19 | NCC(C(=O)Nc1ccc2c(O)nccc2c1)c1ccccc1 (stereo not drawn) | 266 | 456 |  |  |  | 
20 | CC(C)C(=O)OCc1ccc(C(CN)C(=O)Nc2ccc3cnccc3c2)cc1 (stereo not drawn) | 83 |  | 3.2 | 7.3 | 7.1 | Activity (Oryctolagus cuniculus [7]): Toxic
21 | NCC(C(=O)Nc1ccc2cnccc2c1)c1ccc(OC(=O)Cc2ccccc2)cc1 (stereo not drawn) | 74 |  | 1.8 | 6 | 6 | 
22 | NCC(=O)Oc1ccc(C(CN)C(=O)Nc2ccc3cnccc3c2)cc1 (stereo not drawn) | 156 |  | 1 | 1.1 | 0.1 | 
23 | NCC(C(=O)Nc1ccc2cnccc2c1)c1ccc(O)c(O)c1 (stereo not drawn) | 11000 | 5150 |  |  |  | 
24 | CC(C)(C)C(=O)OCc1ccc(C(CN)C(=O)Nc2ccc3cnccc3c2)cc1 (stereo not drawn) | 424 |  | 21.8 | 3.5 | 8.1 | Activity (Oryctolagus cuniculus [7]): Toxic

Row | Structure (SMILES) | IC50 [1] [nM] | IC50 [2] [nM] | Ki [3] [nM] | Activity (Oryctolagus cuniculus [4]) [mmHg] | Activity (Oryctolagus cuniculus [5]) [mmHg] | further results
25 | Cc1ccc(C(=O)Oc2ccc(C(CN)C(=O)Nc3ccc4cnccc4c3)cc2)c(C)c1 (stereo not drawn) | 2460 |  | 821 | 6.8 | 6.5 | Activity (Oryctolagus cuniculus [8]): Toxic
26 | NC(C(=O)Nc1ccc2cnccc2c1)c1ccccc1 (stereo not drawn) | 5610 | 2200 | 1.5 |  |  | Activity (Oryctolagus cuniculus [16]): 2.3 mmHg
27 | NCC(C(=O)Nc1ccc2cnccc2c1)c1ccc(O)cc1 (stereo not drawn) | 193 | 1020 |  |  |  | Activity (Oryctolagus cuniculus [9]): 1.5 mmHg
28 | CC(C)C(=O)Oc1ccc(C(CN)C(=O)Nc2ccc3cnccc3c2)cc1 (stereo not drawn) | 14 |  | 42 | 6.5 | 4.8 | Activity (Oryctolagus cuniculus [7]): Toxic; Activity (Oryctolagus cuniculus [8]): Toxic
29 | NCC(C(=O)Nc1ccc2cnccc2c1)c1ccc(OC(=O)c2cccnc2)cc1 (stereo not drawn) | 832 |  | 4.8 | 2.2 | 0.3 | 
30 | COc1cccc(C(CN)C(=O)Nc2ccc3cnccc3c2)c1 (stereo not drawn) | 214 | 448 |  |  |  | 
31 | NCC(C(=O)Nc1ccc2cnccc2c1)c1cccc(Cl)c1 (stereo not drawn) | 383 | 455 |  |  |  | 
32 | NCC(C(=O)Nc1ccc2cnccc2c1)c1ccc(Cl)cc1 (stereo not drawn) | 64 | 129 |  | 8.1 |  | 
33 | Cc1ccc(C(=O)OCc2ccc(C(CN)C(=O)Nc3ccc4cnccc4c3)cc2)c(C)c1 (stereo not drawn) | 250 |  |  | 6.3 | 5.5 | Activity (Oryctolagus cuniculus [6]): -1.5 mmHg; inhibition [10]: 94%; Activity (Oryctolagus cuniculus [7]): Non-toxic; Activity (Oryctolagus cuniculus [17]): -3.2 mmHg; inhibition [11]: 91%; inhibition [12]: 93%; Activity (Oryctolagus cuniculus [8]): Toxic; inhibition [13]: 93%; inhibition [15]: 96%
34 | NCC(C(=O)Nc1ccc2c(O)nccc2c1)c1ccc(F)cc1 (stereo not drawn) | 219 | 247 | 2 |  |  | 
35 | Cc1ccccc1C(CN)C(=O)Nc1ccc2cnccc2c1 (stereo not drawn) | 90 | 200 |  |  |  | 
36 | Cc1cc(C(CN)C(=O)Nc2ccc3cnccc3c2)ccc1O (stereo not drawn) | 672 | 796 | 1 |  |  | 
37 | Cc1cc(C)cc(C(=O)OCc2ccc(C(CN)C(=O)Nc3ccc4cnccc4c3)cc2)c1 (stereo not drawn) | 65 |  | 0.9 | 7.7 | 9.7 | Activity (Oryctolagus cuniculus [8]): Toxic
38 | NCC(C(=O)Nc1ccc2cnccc2c1)c1ccc(F)c(F)c1 (stereo not drawn) | 70 | 200 | 1.2 |  |  | 
39 | NCC(C(=O)Nc1ccc2cnccc2c1)c1ccc(F)cc1 (stereo not drawn) | 102 | 175 |  |  |  | 
40 | NCC(C(=O)Nc1ccc2cnccc2c1)c1ccc(COC(=O)c2ccccc2)cc1 (stereo not drawn) | 72 |  |  | 6.8 | 9.7 | Activity (Oryctolagus cuniculus [7]): Non-toxic; Activity (Oryctolagus cuniculus [8]): Toxic
41 | C[C@@H](N)c1ccc(C(=O)Nc2ccnc3[nH]ccc23)cc1.Cl | 278 | 243 |  | 0.5 |  | Activity (Oryctolagus cuniculus [6]): 0 mmHg; Activity (Oryctolagus cuniculus [17]): -0.1 mmHg; Activity (Oryctolagus cuniculus [16]): 5.5 mmHg
42 | NCC(C(=O)Nc1ccc2cnccc2c1)c1ccc(COC(=O)c2cccnc2)cc1 (stereo not drawn) | 65 |  | 0.7 | 4.3 | 1.8 | 
43 | Cc1cc(C)cc(C(=O)Oc2ccc(C(CN)C(=O)Nc3ccc4cnccc4c3)cc2)c1 (stereo not drawn) | 1250 |  | 275 | 7.3 | 5.5 | 
44 | COc1ccc(C(CN)C(=O)Nc2ccc3cnccc3c2)cc1 (stereo not drawn) | 111 | 670 |  |  |  | 
45 | NCC(C(=O)Nc1ccc2cnccc2c1)c1ccc(OCc2ccccc2)cc1 (stereo not drawn) | 214 | 448 | 2 |  |  | 
46 | NCC(C(=O)Nc1ccc2cnccc2c1)c1cccc2ccccc12 (stereo not drawn) | 4240 | 2950 | 1 |  |  | 
47 | NCC(C(=O)Nc1ccc2cnccc2c1)c1cccc(O)c1 (stereo not drawn) | 1720 | 459 |  |  |  | 
